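Briefly, cells in 96-well plates were exposed to five compound concentrations for 48 h, and endpoints were estimated by linear interpolation. Abbreviation: GI50, concentration required for 50% inhibition of growth. At the TGI there is no net growth.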
Key:
Assay in all cases: NCI tumour cell line growth inhibition, 48 h
HCT-15 colon = tested on: HCT-15 colon
SF-268 CNS = tested on: SF-268 CNS
COLO 205 colon = tested on: COLO 205 colon
OVCAR-8 ovarian = tested on: OVCAR-8 ovarian
NCI-H460 lung = tested on: NCI-H460 lung
IGROV1 ovarian = tested on: IGROV1 ovarian
HCT-116 colon = tested on: HCT-116 colon
A549 NSCLC = tested on: A549 NSCLC
HT29 colon = tested on: HT29 colon
UACC-257 melanoma = tested on: UACC-257 melanoma

| Structure (SMILES) | GI50 (HCT-15 colon) | TGI (HCT-15 colon) | GI50 (SF-268 CNS) | TGI (SF-268 CNS) | GI50 (COLO 205 colon) | TGI (COLO 205 colon) | GI50 (OVCAR-8 ovarian) | TGI (OVCAR-8 ovarian) | GI50 (NCI-H460 lung) | TGI (NCI-H460 lung) | GI50 (IGROV1 ovarian) | TGI (IGROV1 ovarian) | GI50 (HCT-116 colon) | TGI (HCT-116 colon) | GI50 (A549 NSCLC) | TGI (A549 NSCLC) | GI50 (HT29 colon) | TGI (HT29 colon) | GI50 (UACC-257 melanoma) | TGI (UACC-257 melanoma) |
| --- | --- | --- | --- | --- | --- | --- | --- | --- | --- | --- | --- | --- | --- | --- | --- | --- | --- | --- | --- | --- |
| Cc1ccc(S(=O)(=O)NC(CCC(=O)Nc2ccc(Cl)cc2)C(=O)Nc2ccc(Cl)cc2)cc1 (stereo not given) | 0.118 µM | 7.36 µM | 0.862 µM | 8.04 µM | 0.531 µM | 2.15 µM | 0.724 µM | 8.62 µM | 0.204 µM | 7.33 µM | 0.852 µM | 8.58 µM | 0.139 µM | 7.05 µM | 0.178 µM | 6.72 µM | 1.35 µM | 9.85 µM | 0.702 µM | 7.5 µM |
| O=C(Nc1ccncc1)C(=O)c1cn(S(=O)(=O)c2ccc(Br)cc2)c2ccccc12 | 3.81 µM | > 100 µM | 8.47 µM | > 100 µM | 27.7 µM | > 100 µM | 5.9 µM | > 100 µM | 11.3 µM | > 100 µM | 8.55 µM | > 100 µM | 3.71 µM | > 100 µM | 15.6 µM | > 100 µM | 2.82 µM | > 100 µM | 7.62 µM | > 100 µM |
| N#C/C(=C\c1c(-c2ccccc2)[nH]c2ccccc12)C(=O)c1ccc(Cl)cc1 | 1.38 µM | > 100 µM | 4.55 µM | 24.8 µM | 0.814 µM | 5.43 µM | 6.16 µM | > 47.9 µM | 1.02 µM | 11.6 µM | 4.65 µM | 41.5 µM | 0.68 µM | 23.9 µM | 8.44 µM | > 68.8 µM | 0.476 µM | 21.4 µM | 30.2 µM | > 87.3 µM |
| Cc1cc2c(C)c3cc(C)c(N)cc3nc2cc1N | 1.43 µM | 10.6 µM | 0.604 µM | 6.53 µM | 0.581 µM | 3.31 µM | 0.499 µM | 7.54 µM | 0.332 µM | 1.34 µM | 1.06 µM | 10.8 µM | 0.383 µM | 6.14 µM | 0.636 µM | 3.16 µM | 0.373 µM | 2.09 µM | 2.8 µM | 9.96 µM |
| O/N=C1\CCc2cc(-c3nc(C4CCNCC4)[nH]c3-c3ccncc3)ccc21 | > 25 µM | > 25 µM | > 25 µM | > 25 µM | 2.78 µM | > 25 µM | > 25 µM | > 25 µM | > 25 µM | > 25 µM | > 25 µM | > 25 µM | > 25 µM | > 25 µM | > 25 µM | > 25 µM | > 16.4 µM | > 25 µM | 5.17 µM | > 25 µM |
| Cc1c(NC(=O)C(=O)N=NC(=O)c2ccncc2)c(O)c2ccccc2c1O | – | 26.9 µM | – | 60.5 µM | – | 32.3 µM | – | 52.1 µM | – | 16.8 µM | – | 28.5 µM | – | 30.1 µM | – | 30.2 µM | – | 44.9 µM | – | 24.2 µM |
| O=C(Cc1ccccc1)NN1C(=O)C(Cl)C1c1cccc(O)c1 (stereo not given) | – | 42.7 µM | – | 53.7 µM | – | 32.9 µM | – | 35.1 µM | – | 36.4 µM | – | 34.8 µM | – | 28.9 µM | – | 59.8 µM | – | 31.1 µM | – | 35 µM |
| O=C(Nc1n[nH]c2nc(-c3ccco3)c(Br)cc12)C1CC1 | > 25 µM | > 25 µM | > 25 µM | > 25 µM | > 25 µM | > 25 µM | > 25 µM | > 25 µM | > 25 µM | > 25 µM | > 25 µM | > 25 µM | > 25 µM | > 25 µM | > 25 µM | > 25 µM | > 25 µM | > 25 µM | > 25 µM | > 25 µM |
| CC(Cl)(/C=C/Cl)C(Cl)/C=C/C(Cl)(CCl)CBr (stereo not given) | – | 4.24 µM | – | 11.3 µM | – | 4.94 µM | – | 13.2 µM | – | 15.4 µM | – | 25.1 µM | – | 3.39 µM | – | 47.3 µM | – | 4.66 µM | – | 7.02 µM |
| Cc1cc(Br)cc(C)c1NC(=O)C(=O)CC(=O)c1sc(-n2nc(-c3ccccc3)cc2-c2ccccc2)nc1C | – | > 100 µM | – | > 100 µM | – | > 100 µM | – | > 100 µM | – | > 100 µM | – | > 100 µM | – | > 100 µM | – | > 100 µM | – | > 100 µM | – | > 100 µM |
| COc1ccc(/C=C2/CCCC/C2=N/O)cc1 | – | > 100 µM | – | > 100 µM | – | > 100 µM | – | > 100 µM | – | > 100 µM | – | > 100 µM | – | > 100 µM | – | > 100 µM | – | > 100 µM | – | > 100 µM |
| Cc1ccc(S(=O)(=O)N2CCCSCCSCCCSCC2)cc1 | – | > 100 µM | – | > 100 µM | – | > 100 µM | – | > 100 µM | – | > 100 µM | – | > 100 µM | – | > 100 µM | – | > 100 µM | – | > 100 µM | – | > 100 µM |
| CNC(=O)OCc1nc(SC(C)C)n(C)c1COC(=O)NC | – | > 100 µM | – | > 100 µM | – | > 100 µM | – | > 100 µM | – | > 100 µM | – | > 100 µM | – | > 100 µM | – | > 100 µM | – | > 100 µM | – | > 100 µM |
| CCOC(=O)/C(C1=N[C@H](C(=O)OCC)CS1)=C(\C)O | – | > 100 µM | – | > 100 µM | – | > 100 µM | – | > 100 µM | – | > 100 µM | – | > 100 µM | – | > 100 µM | – | > 100 µM | – | > 100 µM | – | > 100 µM |
| COc1cc(O)c(C(=O)/C=C/c2ccccc2)c(OC)c1 | – | 16.7 µM | – | 20.8 µM | – | 28 µM | – | 10.1 µM | – | 13.3 µM | – | 17.4 µM | – | 20.1 µM | – | 30 µM | – | 22.4 µM | – | 23.6 µM |
| CCCCCCCCCCCCCCCCCCNC(=O)[C@H]1CSC(c2ccc(OC)c(F)c2)N1 (stereo not given in full) | > 37.1 µM | > 53.1 µM | 1.73 µM | 4.14 µM | > 39.1 µM | > 60.5 µM | 2.56 µM | 11.4 µM | 0.606 µM | 2.02 µM | 6.65 µM | 29.1 µM | 1.68 µM | 3.5 µM | 9.87 µM | 38.1 µM | 5.05 µM | > 41.4 µM | > 19.9 µM | > 44.1 µM |
